Key:
[1] = tested on: non-expressing oocytes; assay: cells; type: cell-based, Xenopus laevis; settings: total [3H]CQ transport; for Uptake of [3H]CQ (% non-expressing oocyte control), cis-inhibition: non-expressing oocytes, normalised to the oocyte type control; for Uptake of [3H]CQ (% PfCRTDd2 control), cis-inhibition, non-expressing oocytes: mean ± SEM, SEM
Method in brief: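 Each treatment used ten oocytes, repeated in at least four experiments on different days with oocytes from different frogs. Conditions: ND96 pH 5.5, 27.5 °C, 1.5 h; read-out by scintillation counting.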

[2] = biological target: T1, PfNT1 (Plasmodium falciparum, UniProt Q8IDM6); assay: cell-based; type: cell-based; settings: total [3H]CQ transport; for Uptake of [3H]CQ (% PfNT1 control), trans-stimulation: PfNT1 oocytes, normalised to the oocyte type control; for Uptake of [3H]CQ (% PfCRTDd2 control), trans-stimulation, PfNT1: mean ± SEM, SEM
T1 construct: expressed in transfected cells; host or cells: Xenopus laevis oocytes (stage V-VI), cRNA-injected
T1 sequence (Q8IDM6 whole entry): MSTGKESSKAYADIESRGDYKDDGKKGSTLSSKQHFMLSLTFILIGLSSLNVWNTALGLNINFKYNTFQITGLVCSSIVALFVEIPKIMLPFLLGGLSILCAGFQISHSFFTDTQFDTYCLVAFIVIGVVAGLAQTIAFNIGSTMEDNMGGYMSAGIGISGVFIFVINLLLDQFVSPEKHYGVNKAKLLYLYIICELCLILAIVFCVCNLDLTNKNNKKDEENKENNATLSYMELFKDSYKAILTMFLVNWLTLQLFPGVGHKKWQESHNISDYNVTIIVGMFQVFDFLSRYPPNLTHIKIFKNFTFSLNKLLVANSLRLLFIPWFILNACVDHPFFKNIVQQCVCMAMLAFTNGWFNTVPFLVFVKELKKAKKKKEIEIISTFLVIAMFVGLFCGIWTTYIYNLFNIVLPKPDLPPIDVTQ
Method in brief: (§1)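 Oocytes (ten per treatment, ≥4 independent frogs/days) were preloaded by injecting VF-6 in 25 nL ND96 at pH 5.0, 5.5, 6.0 or 7.0, or Na^+-free choline buffer, then uptake run 1.5 h, 27.5 °C, ND96 pH 5.5 by default. Internal concentrations assumed ~400 nL oocyte volume.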

[3] = biological target: PfCRT^Dd2 (Plasmodium falciparum, UniProt Q9N623, A220S/I356T/K76T/M74I/N326S/N75E/Q271E/R371I); assay: cell-based; type: cell-based; settings: for Uptake of [3H]CQ (% PfCRTDd2 control), trans-stimulation / PfCRT-mediated [3H]CQ transport, trans-stimulation (% PfCRTDd2 control): PfCRTDd2 oocytes; for Uptake of [3H]CQ (% PfCRTDd2 control), trans-stimulation / Uptake of [3H]CQ (% PfCRTDd2 control), trans-stimulation, PfCRTDd2: total [3H]CQ transport; for Uptake of [3H]CQ (% PfCRTDd2 control), trans-stimulation: normalised to the oocyte type control; for PfCRT-mediated [3H]CQ transport, trans-stimulation (% PfCRTDd2 control): normalised to oocyte type control; for Uptake of [3H]CQ (% PfCRTDd2 control), trans-stimulation, PfCRTDd2 / [3H]CQ transport (% PfCRTDd2 control), trans-stimulation, PfCRTDd2: mean ± SEM, SEM; for [3H]CQ transport (% PfCRTDd2 control), trans-stimulation, PfCRTDd2: PfCRT-mediated component (background subtracted)
Chain of PfCRT^Dd2 (Q9N623 whole entry A220S/I356T/K76T/M74I/N326S/N75E/Q271E/R371I): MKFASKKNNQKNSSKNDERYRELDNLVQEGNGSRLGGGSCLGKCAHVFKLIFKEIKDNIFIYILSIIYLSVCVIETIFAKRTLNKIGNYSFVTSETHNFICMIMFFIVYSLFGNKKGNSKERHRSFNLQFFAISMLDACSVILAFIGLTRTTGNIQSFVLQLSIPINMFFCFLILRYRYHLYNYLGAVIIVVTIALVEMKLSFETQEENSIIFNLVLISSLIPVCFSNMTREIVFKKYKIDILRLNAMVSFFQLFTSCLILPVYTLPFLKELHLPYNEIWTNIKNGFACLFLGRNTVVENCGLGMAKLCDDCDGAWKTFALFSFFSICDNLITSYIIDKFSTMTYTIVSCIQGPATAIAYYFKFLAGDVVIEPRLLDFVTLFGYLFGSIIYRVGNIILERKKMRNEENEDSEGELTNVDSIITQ
Method in brief: as §1

[4] = biological target: PfCRT^3D7 (Plasmodium falciparum, UniProt Q8IBZ9); assay: cell-based; type: cell-based; settings: for Uptake of [3H]CQ (% PfCRT3D7 control), trans-stimulation / PfCRT-mediated [3H]CQ transport, trans-stimulation (% PfCRT3D7 control): PfCRT3D7 oocytes; for Uptake of [3H]CQ (% PfCRT3D7 control), trans-stimulation / Uptake of [3H]CQ (% PfCRTDd2 control), trans-stimulation, PfCRT3D7: total [3H]CQ transport; for Uptake of [3H]CQ (% PfCRT3D7 control), trans-stimulation: normalised to the oocyte type control; for PfCRT-mediated [3H]CQ transport, trans-stimulation (% PfCRT3D7 control): normalised to oocyte type control; for Uptake of [3H]CQ (% PfCRTDd2 control), trans-stimulation, PfCRT3D7: mean ± SEM, SEM
Chain of PfCRT^3D7 (Q8IBZ9 59-398): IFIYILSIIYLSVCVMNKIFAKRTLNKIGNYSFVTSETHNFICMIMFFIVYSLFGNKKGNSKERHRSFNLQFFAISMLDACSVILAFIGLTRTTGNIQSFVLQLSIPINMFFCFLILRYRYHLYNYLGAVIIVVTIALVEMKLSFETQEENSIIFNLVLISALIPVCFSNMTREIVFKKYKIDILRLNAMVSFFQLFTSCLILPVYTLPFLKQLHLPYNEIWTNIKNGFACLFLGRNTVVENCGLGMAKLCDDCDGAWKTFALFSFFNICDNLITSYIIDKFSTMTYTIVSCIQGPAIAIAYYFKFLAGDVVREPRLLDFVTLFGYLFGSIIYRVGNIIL
Method in brief: as §1

[5] = biological target: PfCRT^Ecu1110 (Plasmodium falciparum, UniProt Q9N623, A220S/I356L/K76T/N326D); assay: cell-based; type: cell-based; settings: for Uptake of [3H]CQ (% PfCRTEcu1110 control), trans-stimulation / PfCRT-mediated [3H]CQ transport, trans-stimulation (% PfCRTEcu1110 control): PfCRTEcu1110 oocytes; for Uptake of [3H]CQ (% PfCRTEcu1110 control), trans-stimulation / Uptake of [3H]CQ (% PfCRTDd2 control), trans-stimulation, PfCRTEcu1110: total [3H]CQ transport; for Uptake of [3H]CQ (% PfCRTEcu1110 control), trans-stimulation: normalised to the oocyte type control; for PfCRT-mediated [3H]CQ transport, trans-stimulation (% PfCRTEcu1110 control): normalised to oocyte type control
Chain of PfCRT^Ecu1110 (Q9N623 whole entry A220S/I356L/K76T/N326D): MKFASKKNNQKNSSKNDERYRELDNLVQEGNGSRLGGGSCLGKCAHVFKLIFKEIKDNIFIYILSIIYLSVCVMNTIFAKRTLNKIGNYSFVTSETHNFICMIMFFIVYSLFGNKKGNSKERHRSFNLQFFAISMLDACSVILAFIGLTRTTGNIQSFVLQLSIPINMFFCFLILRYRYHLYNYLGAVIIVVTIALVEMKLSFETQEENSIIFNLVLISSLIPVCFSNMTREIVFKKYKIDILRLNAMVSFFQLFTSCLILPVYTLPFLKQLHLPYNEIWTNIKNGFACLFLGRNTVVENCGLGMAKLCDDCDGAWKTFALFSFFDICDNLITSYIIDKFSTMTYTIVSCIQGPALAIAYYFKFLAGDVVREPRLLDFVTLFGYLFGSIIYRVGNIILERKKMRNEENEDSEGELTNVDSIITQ
Method in brief: as §1

[6] = [test solute]i = 45 mM (30 mM for some solutes due to solubility)
[7] = [test solute]i = 5 mM (intracellular)
[8] = [test solute]i = 45 mM (intracellular; 30 mM for some solutes due to solubility)

## NC(=O)C[C@H](N)C(=O)O [L-asparagine]
[1]; [test solute] = 0.5 mM
  Uptake of [3H]CQ (% non-expressing oocyte control), cis-inhibition: 100 ± 5.6 % non-expressing oocyte control
  Uptake of [3H]CQ (% PfCRTDd2 control), cis-inhibition, non-expressing oocytes: 3.9 ± 0.02 % PfCRTDd2 control
[1]; [test solute] = 1 mM
  Uptake of [3H]CQ (% non-expressing oocyte control), cis-inhibition: 98 ± 5.3 % non-expressing oocyte control
  Uptake of [3H]CQ (% PfCRTDd2 control), cis-inhibition, non-expressing oocytes: 2.8 ± 0.04 % PfCRTDd2 control
[1]; [test solute] = 2 mM
  Uptake of [3H]CQ (% non-expressing oocyte control), cis-inhibition: 100 ± 4.6 % non-expressing oocyte control
  Uptake of [3H]CQ (% PfCRTDd2 control), cis-inhibition, non-expressing oocytes: 2.5 ± 0.05 % PfCRTDd2 control
[2]; [test solute]i = 5 mM
  Uptake of [3H]CQ (% PfNT1 control), trans-stimulation: 100 ± 2.5 % PfNT1 control
[2]; [6]
  Uptake of [3H]CQ (% PfNT1 control), trans-stimulation: 99 ± 3.6 % PfNT1 control
[2]; [7]
  Uptake of [3H]CQ (% PfCRTDd2 control), trans-stimulation, PfNT1: 2.8 ± 0.04 % PfCRTDd2 control
[2]; [8]
  Uptake of [3H]CQ (% PfCRTDd2 control), trans-stimulation, PfNT1: 3.1 ± 0.06 % PfCRTDd2 control
[3]; [test solute]i = 5 mM
  Uptake of [3H]CQ (% PfCRTDd2 control), trans-stimulation: 101 ± 3.1 % PfCRTDd2 control
[3]; [6]
  Uptake of [3H]CQ (% PfCRTDd2 control), trans-stimulation: 98 ± 2.4 % PfCRTDd2 control
  [3H]CQ transport (% PfCRTDd2 control), trans-stimulation, PfCRTDd2: 96 ± 3.2 % PfCRTDd2 control
[3]; [7]
  PfCRT-mediated [3H]CQ transport, trans-stimulation (% PfCRTDd2 control): 99 ± 2.4 % PfCRTDd2 control
  Uptake of [3H]CQ (% PfCRTDd2 control), trans-stimulation, PfCRTDd2: 101 ± 3.1 % PfCRTDd2 control
[3]; [8]
  PfCRT-mediated [3H]CQ transport, trans-stimulation (% PfCRTDd2 control): 96 ± 3.2 % PfCRTDd2 control
  Uptake of [3H]CQ (% PfCRTDd2 control), trans-stimulation, PfCRTDd2: 98 ± 2.4 % PfCRTDd2 control
[3]; [test solute]i = 5 mM (injected)
  [3H]CQ transport (% PfCRTDd2 control), trans-stimulation, PfCRTDd2: 99 ± 2.4 % PfCRTDd2 control
[4]; [test solute]i = 5 mM
  Uptake of [3H]CQ (% PfCRT3D7 control), trans-stimulation: 100 ± 4.2 % PfCRT3D7 control
[4]; [6]
  Uptake of [3H]CQ (% PfCRT3D7 control), trans-stimulation: 100 ± 3.7 % PfCRT3D7 control
[4]; [7]
  PfCRT-mediated [3H]CQ transport, trans-stimulation (% PfCRT3D7 control): 98 ± 3.6 % PfCRT3D7 control
  Uptake of [3H]CQ (% PfCRTDd2 control), trans-stimulation, PfCRT3D7: 3.3 ± 0.01 % PfCRTDd2 control
[4]; [8]
  PfCRT-mediated [3H]CQ transport, trans-stimulation (% PfCRT3D7 control): 98 ± 2.8 % PfCRT3D7 control
  Uptake of [3H]CQ (% PfCRTDd2 control), trans-stimulation, PfCRT3D7: 3.3 ± 0.04 % PfCRTDd2 control
[5]; [test solute]i = 5 mM
  Uptake of [3H]CQ (% PfCRTEcu1110 control), trans-stimulation: 98 ± 4.1 % PfCRTEcu1110 control
[5]; [6]
  Uptake of [3H]CQ (% PfCRTEcu1110 control), trans-stimulation: 98 ± 3.2 % PfCRTEcu1110 control
[5]; [7]
  PfCRT-mediated [3H]CQ transport, trans-stimulation (% PfCRTEcu1110 control): 96 ± 2.1 % PfCRTEcu1110 control
[5]; [8]
  PfCRT-mediated [3H]CQ transport, trans-stimulation (% PfCRTEcu1110 control): 96 ± 2.7 % PfCRTEcu1110 control
[5]; [test solute]i = 5 mM (intracellular), mean ± SEM, SEM
  Uptake of [3H]CQ (% PfCRTDd2 control), trans-stimulation, PfCRTEcu1110: 35 ± 1.8 % PfCRTDd2 control
[5]; [test solute]i = 45 mM (intracellular; 30 mM for some solutes due to solubility), mean ± SEM, SEM
  Uptake of [3H]CQ (% PfCRTDd2 control), trans-stimulation, PfCRTEcu1110: 35 ± 2.1 % PfCRTDd2 control
[5]; trans-stimulation, [test solute]i = 5 mM (injected), PfCRT-mediated component (background subtracted), sheet title says normalised to PfCRTDd2 control, mean ± SEM, SEM
  [3H]CQ transport (% PfCRTDd2 control), trans-stimulation, PfCRTEcu1110: 32 ± 1.6 % PfCRTEcu1110 control

Source: PMC7413254 (Nature Communications, 2020)
